Reference: patent publication US12606543B2, “Indole derivatives as serotonergic agents useful for the treatment of disorders related thereto” (priority 2023, dated 2026)
Like-named read-outs stand apart in the source and are kept apart here.

Tests used:
[1] = Pharmacokinetic studies in rat (i.v.); format: in vivo; details: male, Sprague-Dawley, plasma, iv, 1.19 mg/kg, rat plasma; for half-life / AUC(0-t): i.v. 1.19 mg/kg; for concentration at 0.25 h / concentration at 1 h / concentration at 4 h: i.v., dose 1.19 mg/kg
Procedure: Animals: Male Sprague-Dawley rats (˜225-350 g) from Charles River Labs were acclimatized for a minimum of 5 days prior to start of study procedures. Body weights were recorded on the day of dosing.
Any abnormalities were documented including presence/absence of wet dog shakes/back muscle contractions (WDS/BMC).
Dosing: Formulations were administered intravenously (i.v.) via the tail vein using a 25 G needle connected to a 1 cc syringe.
The exemplary compounds of Formula (I) were freshly prepared at the appropriate concentrations in 5% Tween-80 in saline.
Blood collection time (h): 0, […], 1 and 4
Volume/time-point: ˜0.25 mL (saphenous vein)
Instrumentation: AB Sciex QTRAP 4000 or 6500 MS/MS system equipped with an LC system with a binary pump, a solvent degasser, a thermostated column compartment, and a multiplate autosampler.
Analysis software: Phoenix® WinNonlin® 8.3 (Pharsight, Certara, Mountainview, CA).
Analysis methods: non-compartmental analysis, linear up/log down trapezoidal rule.
PK parameters: t1/2 and AUC0-tlast was estimated.
The Compounds of Formula (I) were freshly prepared at the appropriate concentrations in 5% Tween-80 in saline.
Instrumentation: AB Sciex QTRAP 4000 or 6500 MS/MS system equipped with an LC system with a binary pump, a solvent degasser, a thermostated column compartment and a multiplate autosampler.
PK parameters: t1/2 and AUC0-tlast will be estimated.

[2] = Plasma protein binding by equilibrium dialysis, dog; format: in vitro ADME; details: Dog plasma, 1 μM
Procedure: The final concentration of compound was 1 μM. The final concentration of DMSO was 0.5%. Ketoconazole was used as positive control in the assay.
The assay was performed in duplicate.
All calculations were carried out using Microsoft Excel. […] The percentages of bound compound were calculated as follows: […]
Ketoconazole was used as positive control in the assay.

[3] = Liver microsomes stability, human; format: in vitro ADME; details: for Remaining Percentage (%) 0 min / Remaining Percentage (%) 30 min / Remaining Percentage (%) 60 min: human liver microsomes
Procedure: (§1) The objective of this study was to estimate in vitro metabolic stability of exemplary compounds of Formula (I) or a pharmaceutically acceptable salt, solvate, and/or prodrug thereof in pooled human, male rat, and male mouse liver microsomes. The concentrations of compounds in reaction systems were evaluated by LC-MS/MS for estimating the stability in pooled human, male rat, and male mouse liver microsomes. The in vitro intrinsic clearances of test compounds were determined as well.
A master solution in the “Incubation Plate” containing phosphate buffer, ultra-pure H2O, MgCl2 solution and liver microsomes was made according to Table 33. The mixture was pre-warmed at 37° C. water bath for 5 minutes.
40 μL of 10 mM nicotinamide adenine dinucleotide phosphate (NADPH) solution was added to each well. The final concentration of NADPH was 1 mM. The negative control samples were prepared by replacing NADPH with 40 μL of ultra-pure H2O. Samples were prepared in duplicate. Negative controls were prepared in singlet.
The reaction was started with the addition of 4 μL of 200 μM exemplary test compounds of the disclosure or control compounds to each master solution to get the final concentration of 2 μM. This study was performed in duplicate.
Aliquots of 50 μL were taken from the reaction solution at 0, 15, 30, 45, and 60 minutes. The reaction solutions were stopped by the addition of 4 volumes of cold methanol with IS (100 nM alprazolam, 200 nM imipramine, 200 nM labetalol, and 2 μM ketoprofen). Samples were centrifuged at 3,220 g for 40 minutes. Aliquot of 90 μL of the supernatant was mixed with 90 μL of ultra-pure H2O and then was used for LC-MS/MS analysis.
LC/MS analysis was performed for all samples from this study using a Shimadzu liquid chromatograph separation system equipped with degasser DGU-20A5R; solvent delivery unit LC-30AD; system controller SIL-30AC; column oven CTO-30A; CTC Analytics HTC PAL System. Mass spectrometric analysis was performed using a Triple Quad™ 5500 instrument.
All calculations were carried out using Microsoft Excel. Peak area ratios of test compound to internal standard (listed in the below table) were determined from extracted ion chromatograms.
All calculations were carried out using Microsoft Excel. Peak areas were determined from extracted ion chromatograms. The slope value, k, was determined by linear regression of the natural logarithm of the remaining percentage of the parent drug vs. incubation time curve.
The in vitro half-life (in vitro t1/2) was determined from the slope value:
Conversion of the in vitro t1/2 (min) into the in vitro intrinsic clearance (in vitro CLint, in μL/min/mg proteins) was done using the following equation (mean of duplicate determinations): […]
as §1, with “solvate” for “solvate,”, “rat” for “rat,”
A master solution in the “Incubation Plate” containing phosphate buffer, ultra-pure H2O, MgCl2 solution and liver microsomes was made according to Table 67. The mixture was pre-warmed at 37° C. water bath for 5 minutes.
40 μL of 10 mM NADPH solution was added to each well. The final concentration of NADPH was 1 mM. The negative control samples were prepared by replacing NADPH with 40 μL of ultra-pure H2O. Samples were prepared in duplicate. Negative controls were prepared in singlet
Aliquots of 50 μL were taken from the reaction solution at 0, 15, 30, 45 and 60 minutes. The reaction solutions were stopped by the addition of 4 volumes of cold methanol with IS (100 nM alprazolam, 200 nM imipramine, 200 nM labetalol and 2 μM ketoprofen).

[4] = mean of 3 rats, read-out: Plasma concentration, Mean ± SD
[5] = rat R01, read-out: Plasma concentration, R01
[6] = rat R02, read-out: Plasma concentration, R02
[7] = rat R03, read-out: Plasma concentration, R03
[8] = Human liver microsomes, 2 μM, 0.5 mg/mL, NADPH

What does the source list for `CSc1ccc2[nH]cc(C[C@H]3CCCN3C)c2c1` [(R) I-1, (R)-3-((1-Methylpyrrolidin-2-yl)methyl)-5-(methylthio)-1H-indole]?
half-life ([1]; mean of 3 rats, estimated from 2 points only, read-out: Apparent t1/2, Mean ± SD (converted)): 47.1 ± 10.4 min; AUC(0-t) ([1]; mean of 3 rats, read-out: AUC0-tlast, Mean ± SD): 136 ± 22 ng·h/mL; half-life ([1]; rat R01, estimated from 2 points only, read-out: Apparent t1/2, R01 (converted)): 58.5 min; AUC(0-t) ([1]; rat R01, read-out: AUC0-tlast, R01): 151 ng·h/mL; half-life ([1]; rat R02, estimated from 2 points only, read-out: Apparent t1/2, R02 (converted)): 37.9 min; AUC(0-t) ([1]; rat R02, read-out: AUC0-tlast, R02): 111 ng·h/mL; half-life ([1]; rat R03, estimated from 2 points only, read-out: Apparent t1/2, R03 (converted)): 44.9 min; AUC(0-t) ([1]; rat R03, read-out: AUC0-tlast, R03): 147 ng·h/mL; concentration at 0.25 h [1, 4]: 109 ± 12.9 ng/mL; concentration at 0.25 h [1, 5]: 120 ng/mL; concentration at 0.25 h [1, 6]: 112 ng/mL; concentration at 0.25 h [1, 7]: 94.7 ng/mL; concentration at 1 h [1, 4]: 46.1 ± 18.1 ng/mL; concentration at 1 h [1, 5]: 42.3 ng/mL; concentration at 1 h [1, 6]: 30.3 ng/mL; concentration at 1 h [1, 7]: 65.8 ng/mL; concentration at 4 h [1, 4]: 3.96 ± 2.8 ng/mL; concentration at 4 h [1, 5]: 7.04 ng/mL; concentration at 4 h [1, 6]: 1.56 ng/mL; concentration at 4 h [1, 7]: 3.27 ng/mL; recovery at 6 h, 1 µM ([2]; Beagle, dog, equilibrium dialysis 6 hours): 92.9%; fraction unbound at 6 h, 1 μM ([2]; Beagle, equilibrium dialysis 6 hours, 37° C., read-out: % Bound (converted)): 0.174; % Remaining @ 6 hours ([2]; 6 hours, 37° C.): 95.50%; Predicted hepatic CL ([3]; Human liver microsomes): 16.09 mL/min/kg; half-life at 2 μM [3, 8]: 24 min; microsomal CLint at 2 μM [3, 8]: 57.7 µL/min/mg; CLint scaled at 2 μM ([3]; Human liver microsomes, read-out: Scaled-up CLint): 72.3 mL/min/kg; Remaining Percentage (%) 0 min ([3]; With Cofactors): 100.00%; Remaining Percentage (%) 30 min ([3]; With Cofactors): 50.51%; Remaining Percentage (%) 60 min ([3]; With Cofactors): 17.72%; Remaining Percentage (%) 0 min ([3]; Without Cofactors): 100.00%; Remaining Percentage (%) 30 min ([3]; Without Cofactors): 101.47%; Remaining Percentage (%) 60 min ([3]; Without Cofactors): 97.56%
